Experimental data from patent publication US20240041832A1, “METHODS AND COMPOSITIONS FOR TREATING EYE DISEASES” (JENIVISION INC., priority 2021, published 2024).
Read-outs that look alike come from different tables or passages of the source.

Assays:
[1] = Rabbit pharmacokinetics and ocular tissue distribution, eye-drop to both eyes (Example 1); type: in vivo, New Zealand rabbits
Procedure: A retinal bioavailability study was performed on 4,5-dihydro-N-[4-[[4-(1-methylethoxy) phenyl] methyl] phenyl]-1H-imadazol-2-amine (assigned the coded notation JV-DE1). This study provided an indication that the compound formulated in an eye-drop and administered bilaterally to the anterior ocular surface was bioavailable in the retina. This pharmacokinetics and ocular tissue distribution study of JV-DE1 was performed in New Zealand rabbits. Briefly, […] (male) received JV-DE1 via ocular instillation to both eyes at a dose of 0.12 mg/eye. Blood samples (1 mL) were collected at 0, 0.5, 2, 4, 8, and 24 h after single ocular administration to both eyes. At each time point, one animal was euthanized after blood collection and then eye tissue samples were collected from both eyes. Aqueous humor, bulbar conjunctiva, anterior sclera, posterior sclera (in the optic nerve exit region), retina, cornea, ciliary body, and iris were collected and weighed. The samples were then stored in an ultra-low temperature freezer. Drug concentrations in the samples were subsequently determined by the LC-MS/MS method. Results are shown in FIG. 2A (right eye) and FIG. 2B (left eye).
JV-DE1 was widely distributed in the ocular tissues, and with no meaningful difference between the left and right eye, since drug administration was bilateral. JV-DE1 ocular tissue levels were well-maintained over an 8 hour period post-dosing but had declined by 24 hours. The cornea, anterior sclera, and bulbar conjunctiva had the highest levels of JV-DE1 in both eyes, whereas JV-DE1 levels were lower in those structures located within the globe. The most significant finding was the unexpectedly high levels of JV-DE1 in the retina and the posterior sclera, which underlies and supports the retina.

[2] = Rabbit bio-disposition, eye-drop to one eye (OD) (Example 2); type: in vivo, New Zealand rabbits
Procedure: In order to verify that drug delivery of JV-DE1 was essentially confined to ocular redistribution other than via the blood circulation following contact of the eye-drop with the anterior segment ocular surface tissues, a monocular drug application study was performed. JV-DE1 was formulated in 2.4% CrEL and 0.2% glycerol in pH 7.6 TBS. CrEL is polyoxyl 35 castor oil. Other names for polyoxyl 35 castor oil include macrogolglycerol ricinoleate, PEG-35 castor oil, and […]. Briefly, for the bio-disposition experiment, JV-DE1 was administered to one eye (OD) via ocular instillation to said eye at a dose of 0.12 mg/eye. Blood samples (1 mL) and were collected at 0, 0.5, 2, 6, and 24 h after a single eye-drop ocular administration. At each of the above time points, one animal was euthanized after blood collection and selected eye tissue samples were collected from both eyes. Aqueous humor, bulbar conjunctiva, anterior sclera, posterior sclera (in the optic nerve exit region), retina, cornea, ciliary body, and iris were collected and weighed. The samples were then stored in an ultra-low temperature freezer. JV-DE1 concentrations in the samples were subsequently determined by the LC-MS/MS method.
JV-DE1 was widely distributed in the ocular tissues of the eye (OD) that received the compound. The concentration of JV-DE1 in ocular tissue levels were well-maintained over an 8 hour period post-dosing but had declined by 24 hours. The cornea, anterior sclera, and bulbar conjunctiva had the highest levels of JV-DE1 in the treated eye, which was about 100-fold greater than the JV-DE1 levels in the ciliary body/iris, posterior sclera, and retina. The most significant finding was the unexpected level of JV-DE1 in the vitreous humor. […] JV-DE1 levels in the retina of the contralateral, untreated eye were, however, one-tenth of those in the treated eye. […] Only about 10% achieved the retina by delivery from the bloodstream.

[3] = Biodistribution of JV-DE1 after single periorbital skin administration (Example 3); type: in vivo, cynomolgus monkeys; settings: for concentration at 3 h / concentration at 6 h / concentration at 0.5 h / concentration at 24 h: topical; for concentration at 3 h: 160.58 μg/right eye; for concentration at 6 h: 162.23 μg/right eye; for concentration at 0.5 h: 179.12 μg/right eye; for concentration at 24 h: 159.26 μg/right eye
Procedure: An additional experiment on JV-DE1 involving determining its bio-disposition following topical application to the periorbital skin that surrounds the anterior portion of the globe was performed.
JV-DE1 was formulated in medium chain triglyceride (MCT) oil. An amount of about 0.16 mg of JV-DE1 formulation was administered to one eye (OD) by circumferential topical application to the periorbital skin that surrounds the anterior portion of the globe. […] The following representative tissues were collected; upper eyelid, cornea, retina, and vitreous humor. JV-DE1 concentrations in the samples were subsequently determined by the LC-MS/MS method. The results are summarized below in Table 1

[4] = target: vascular IP receptor (Homo sapiens, UniProt P43119); settings: Jones R L et al. (2006); cited from earlier work
[5] = target: PAF receptor (Homo sapiens, UniProt P25105); settings: Bley K R et al. (2006); cited from earlier work
[6] = target: T1, IP receptor (Homo sapiens, UniProt P43119); settings: U.S. Pat. No. 9,321,745; cited from earlier work
T1 construct: VEGF release from human immune cells when macrophages were primed with TNFα; endogenous in cells; host or cells: human macrophages primed with TNFα

[7] = 0.5 h, 179.120 μg/right eye periorbital skin
[8] = 3 h, 160.580 μg/right eye periorbital skin
[9] = 6 h, 162.230 μg/right eye periorbital skin
[10] = 24 h, 159.260 μg/right eye periorbital skin

Chain of PAF receptor (P25105 whole entry): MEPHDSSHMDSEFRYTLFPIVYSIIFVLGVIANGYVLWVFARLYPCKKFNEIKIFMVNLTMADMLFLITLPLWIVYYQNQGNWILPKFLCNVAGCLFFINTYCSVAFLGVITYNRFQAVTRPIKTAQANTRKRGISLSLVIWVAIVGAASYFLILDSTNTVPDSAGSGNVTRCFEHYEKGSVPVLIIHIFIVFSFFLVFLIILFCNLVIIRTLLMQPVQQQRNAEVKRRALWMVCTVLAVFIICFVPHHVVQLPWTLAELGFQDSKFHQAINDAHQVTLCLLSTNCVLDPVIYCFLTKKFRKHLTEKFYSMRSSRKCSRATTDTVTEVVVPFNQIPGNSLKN
Chain of vascular IP receptor (P43119 whole entry): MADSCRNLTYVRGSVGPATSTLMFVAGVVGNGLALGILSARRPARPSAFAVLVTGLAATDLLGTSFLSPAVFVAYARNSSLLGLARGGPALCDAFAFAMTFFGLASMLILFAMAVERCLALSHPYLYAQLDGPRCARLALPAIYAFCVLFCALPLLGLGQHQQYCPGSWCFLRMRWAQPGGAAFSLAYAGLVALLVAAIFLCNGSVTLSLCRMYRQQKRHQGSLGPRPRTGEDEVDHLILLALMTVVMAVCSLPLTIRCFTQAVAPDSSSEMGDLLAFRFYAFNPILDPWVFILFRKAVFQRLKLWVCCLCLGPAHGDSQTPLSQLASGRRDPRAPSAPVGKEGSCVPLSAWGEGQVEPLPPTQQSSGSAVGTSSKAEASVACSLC
T1 sequence (P43119 whole entry): as above

CC(C)Oc1ccc(Cc2ccc(NC3=NCCN3)cc2)cc1 [JV-DE1, 4,5-dihydro-N-[4-[[4-(1-methylethoxy)phenyl]methyl]phenyl]-1H-imadazol-2-amine]
drug level delivered to the anterior chamber of the eye as an eye drop ([1]; eye drop): > 1 µg/g
biodistribution dose gradient, eye drops ([1]; eye drops): cornea≥conjunctiva≥anterior sclera≈iris≥ciliary body≥posterior sclera≥aqueous humor≥retina
retina distribution after eye-drop ([1]; eye-drop administration): less than 60 ng/g
Cmax ([1]; male, New Zealand, rabbit, plasma, topical or ocular, ocular instillation to both eyes, 0.12 mg/eye, at 0.5 hours post-dose): ~2 ng/mL
plasma clearance at 24 hours post dose ([1]; ocular instillation to both eyes, 0.12 mg/eye): good clearance
Cmax ([2]; New Zealand, rabbit, plasma, topical or ocular, ocular instillation to one eye (OD), 0.12 mg/eye, at 0.5 hours post-dose): 0.95 ng/mL
retina level of contralateral untreated eye relative to treated eye ([2]; OS vs OD): one-tenth
share of drug reaching the retina by delivery from the bloodstream ([2]; monocular eye-drop): about 10%
share of drug reaching the retina by intra-global redistribution of the eye-drop ([2]; monocular eye-drop): 90%
tissues with detectable compound in contralateral untreated eye (OS) ([2]; monocular eye-drop to OD): detected only in the cornea, posterior sclera, and retina
time to complete clearance from plasma ([2]; ocular instillation to one eye (OD), 0.12 mg/eye): ≤ 24 h
levels in cornea, anterior sclera and bulbar conjunctiva relative to ciliary body/iris, posterior sclera and retina ([2]; treated eye (OD)): about 100 fold
% of administered dose, Right cornea [3, 7]: 0.00%
% of administered dose, Right retina [3, 7]: 0.09%
% of administered dose, Right upper eyelid [3, 7]: 0.64%
% of administered dose, Right vitreous humor [3, 7]: 4.67%
% of administered dose, Right cornea [3, 8]: 0.00%
% of administered dose, Right retina [3, 8]: 0.26%
% of administered dose, Right upper eyelid [3, 8]: 1.50%
% of administered dose, Right vitreous humor [3, 8]: 2.91%
% of administered dose, Right cornea [3, 9]: 0.00%
% of administered dose, Right retina [3, 9]: 0.25%
% of administered dose, Right upper eyelid [3, 9]: 0.48%
% of administered dose, Right vitreous humor [3, 9]: 3.13%
% of administered dose, Right cornea [3, 10]: 0.00%
% of administered dose, Right retina [3, 10]: 0.05%
% of administered dose, Right upper eyelid [3, 10]: 0.60%
% of administered dose, Right vitreous humor [3, 10]: 1.79%
Drug Concentration in Plasma ([3]; 24 h, 159.260 μg/right eye periorbital skin, animal 104, LLOQ 0.1 ng/ml): BLQ
drug level in retina at all tested time points ([3]; NIODP 165.30±4.65 μg/eye (OD)): greater than 1000 ng/g
drug level delivered to retina via NIODP ([3]; all tested time points): > 1 µg/g
plasma concentrations ([3]; all time points, LLOQ 0.1 ng/ml): less than 0.3 ng/ml
Cmax ([3]; cynomolgus monkey, plasma, topical or ocular, 0.16 mg, single dose monocular periorbital administration, over the 6 hour post-dose period): 0.13 to 0.26 ng/mL
concentration at 3 h ([3]; cynomolgus monkey, plasma, 3 h, 160.580 μg/right eye periorbital skin, animal 102, read-out: Drug Concentration in Plasma): 0.21 ng/mL
concentration at 6 h ([3]; cynomolgus monkey, plasma, 6 h, 162.230 μg/right eye periorbital skin, animal 103, read-out: Drug Concentration in Plasma): 0.26 ng/mL
concentration at 0.5 h ([3]; cynomolgus monkey, plasma, 0.5 h, 179.120 μg/right eye periorbital skin, animal 101, read-out: Drug Concentration in Plasma): 0.131 ng/mL
concentration at 24 h ([3]; cynomolgus monkey, right cornea, 24 h, 159.260 μg/right eye periorbital skin, read-out: Drug Concentration in Tissue, Right cornea): 5.5 ng/g
concentration at 3 h ([3]; cynomolgus monkey, right cornea, 3 h, 160.580 μg/right eye periorbital skin, read-out: Drug Concentration in Tissue, Right cornea): 27.9 ng/g
concentration at 6 h ([3]; cynomolgus monkey, right cornea, 6 h, 162.230 μg/right eye periorbital skin, read-out: Drug Concentration in Tissue, Right cornea): 45.5 ng/g
concentration at 0.5 h ([3]; cynomolgus monkey, right cornea, 0.5 h, 179.120 μg/right eye periorbital skin, read-out: Drug Concentration in Tissue, Right cornea): 39.6 ng/g
concentration at 24 h ([3]; cynomolgus monkey, right retina, 24 h, 159.260 μg/right eye periorbital skin, read-out: Drug Concentration in Tissue, Right retina): 1620 ng/g
concentration at 3 h ([3]; cynomolgus monkey, right retina, 3 h, 160.580 μg/right eye periorbital skin, read-out: Drug Concentration in Tissue, Right retina): 16700 ng/g
concentration at 6 h ([3]; cynomolgus monkey, right retina, 6 h, 162.230 μg/right eye periorbital skin, read-out: Drug Concentration in Tissue, Right retina): 23900 ng/g
concentration at 0.5 h ([3]; cynomolgus monkey, right retina, 0.5 h, 179.120 μg/right eye periorbital skin, read-out: Drug Concentration in Tissue, Right retina): 9300 ng/g
concentration at 24 h ([3]; cynomolgus monkey, right upper eyelid, 24 h, 159.260 μg/right eye periorbital skin, read-out: Drug Concentration in Tissue, Right upper eyelid): 11600 ng/g
concentration at 3 h ([3]; cynomolgus monkey, right upper eyelid, 3 h, 160.580 μg/right eye periorbital skin, read-out: Drug Concentration in Tissue, Right upper eyelid): 32500 ng/g
concentration at 6 h ([3]; cynomolgus monkey, right upper eyelid, 6 h, 162.230 μg/right eye periorbital skin, read-out: Drug Concentration in Tissue, Right upper eyelid): 7950 ng/g
concentration at 0.5 h ([3]; cynomolgus monkey, right upper eyelid, 0.5 h, 179.120 μg/right eye periorbital skin, read-out: Drug Concentration in Tissue, Right upper eyelid): 26500 ng/g
concentration at 24 h ([3]; cynomolgus monkey, right vitreous humor, 24 h, 159.260 μg/right eye periorbital skin, read-out: Drug Concentration in Tissue, Right vitreous humor): 19 ng/g
concentration at 3 h ([3]; cynomolgus monkey, right vitreous humor, 3 h, 160.580 μg/right eye periorbital skin, read-out: Drug Concentration in Tissue, Right vitreous humor): 7.79 ng/g
concentration at 6 h ([3]; cynomolgus monkey, right vitreous humor, 6 h, 162.230 μg/right eye periorbital skin, read-out: Drug Concentration in Tissue, Right vitreous humor): 3.9 ng/g
concentration at 0.5 h ([3]; cynomolgus monkey, right vitreous humor, 0.5 h, 179.120 μg/right eye periorbital skin, read-out: Drug Concentration in Tissue, Right vitreous humor): 15.2 ng/g
biodistribution via NIODP ([3]; periorbital skin): eyelid≥retina>>cornea≥vitreous humor
time to complete clearance from plasma ([3]; single dose monocular periorbital administration): ≤ 24 h
pA2 [4]: 8.2
pKi [5]: 7.9
VEGF release induced by cicaprost in the presence of TNFα [6]: abolished
